{"source": "patent US20040186166A1", "about": "“Cannabinoid analogs as peroxisome proliferator activated nuclear receptor gamma activators” (priority 2002, published 2004)", "key": {"COX-1": {"target": "COX-1 (Homo sapiens, UniProt P23219)", "sequence (P23219 24-599)": "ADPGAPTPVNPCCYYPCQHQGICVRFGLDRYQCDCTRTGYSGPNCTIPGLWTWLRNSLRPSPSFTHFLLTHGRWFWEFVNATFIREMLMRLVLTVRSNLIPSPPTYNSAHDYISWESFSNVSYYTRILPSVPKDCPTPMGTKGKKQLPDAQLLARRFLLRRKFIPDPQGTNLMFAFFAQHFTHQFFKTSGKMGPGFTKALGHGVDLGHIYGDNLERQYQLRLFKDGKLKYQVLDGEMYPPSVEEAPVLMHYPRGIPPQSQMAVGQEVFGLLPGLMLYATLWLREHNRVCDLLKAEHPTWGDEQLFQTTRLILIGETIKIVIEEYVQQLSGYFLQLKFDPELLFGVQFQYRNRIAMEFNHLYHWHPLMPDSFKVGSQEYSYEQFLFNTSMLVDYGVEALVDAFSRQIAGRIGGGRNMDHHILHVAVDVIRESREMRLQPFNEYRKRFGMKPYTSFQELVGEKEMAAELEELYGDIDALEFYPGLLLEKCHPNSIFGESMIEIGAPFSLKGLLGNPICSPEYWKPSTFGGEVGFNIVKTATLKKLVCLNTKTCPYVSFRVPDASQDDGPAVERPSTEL", "conditions": "0.25-25 μM, Zurier et al. 1998; cited from earlier work"}, "human PPARγ": {"target": "T1, human PPARγ (Homo sapiens, UniProt P37231)", "T1 construct": "The Gal4-hPPAR LBD constructs were obtained from GlaxoSmithKline; host or cells: HEK293", "T1 sequence (P37231 238-503 limits assumed)": "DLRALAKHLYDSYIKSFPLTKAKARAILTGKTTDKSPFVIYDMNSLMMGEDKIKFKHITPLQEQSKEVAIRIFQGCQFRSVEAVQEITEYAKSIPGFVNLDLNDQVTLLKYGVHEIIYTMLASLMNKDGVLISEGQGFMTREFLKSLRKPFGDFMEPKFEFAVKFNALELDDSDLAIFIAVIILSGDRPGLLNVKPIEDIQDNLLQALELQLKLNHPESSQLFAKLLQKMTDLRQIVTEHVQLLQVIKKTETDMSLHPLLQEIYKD", "test": "Gal4-dependent MH100-Luc reporter, human PPARγ", "format": "cell-based", "conditions": "compared with mouse PPARγ", "procedure": "The pGEX-DRIP205 (527˜970) was obtained from the Sloan-Kettering Cancer Center. The Gal4-hPPAR LBD constructs were obtained from GlaxoSmithKline, Research Triangle Park, NC. The IL8-Luciferase reporter was obtained from Celgene, San Diego, Calif. The plasmids mPPARα, mPPARγ1, mPPARδ , and hRXRα were in the pCMX vector (Umesono et al., Cell 65:1255-1266, 1991).\nFor PPARγ activation assay, HEK293 cells were plated in 12-well cell culture plates and maintained in Dulbecco's modified Eagle's medium (DMEM) supplemented with 10% fetal bovine serum (FBS) at 37° C. under 5% CO2. […] The average normalized luciferase activity was determined via triplicate experiments. […]\nTo further confirm activation of PPARγ by AJA, and also to determine PPARγ species specificity, the ability of AJA to activate the chimeric Gal4-DBD/PPAR fusion proteins on a Gal4-dependent MH100-Luc reporter was assessed (FIG. 4A). The PPARs were expressed as Gal4 DBD fusion proteins, which bind to the UAS promoter containing 4 copies of a synthetic Gal4 binding site upstream of the minimal thymidine kinase (TK) promoter. […] Transfected cells were treated with increasing concentrations of AJA from 10-60 μM and the luciferase activities were determined in triplicate experiments. […]"}, "3T3 L1 fibroblasts": {"tested_on": "3T3 L1 fibroblasts", "test": "Adipocyte differentiation assay, Oil Red O staining", "format": "cell-based", "conditions": "20 μM AJA, 10 days, 10 μg/ml insulin", "procedure": "The adipocyte differentiation assay was performed as described by Mukherjee et. al. (Mol Endocrinol 14: 1425-33, 2000). The 3T3 L1 cells (American Type Culture Collection) were cultured in DMEM media supplemented with 10% calf serum. Two days after reaching confluence, cells were treated with AJA, GW347845, or vehicle (0.1% DMSO) in the presence of 10 μg/ml insulin every other day. After 10 days of treatment with AJA or 7 days with GW347845 at confluence, cells were fixed and stained with Oil Red O (Sigma). For RT-PCR, total cellular RNAs were isolated by TRIzol (Gibco). Reverse transcriptase polymerase chain reaction (RT-PCR) was performed using the superscript first-strand synthesis kit (Invitrogen). After first-strand cDNA was synthesized by use of oligo (dT), cDNA was amplified by PCR. […]\n3T3 L1 fibroblasts cells were cultured in DMEM supplemented with 10% calf serum. […] The cells were treated for 10 days with AJA, or 7 days with GW347845, and lipid accumulation in cells was assessed by Oil Red O staining."}}}
{"smiles": "CCCCCCC(C)(C)c1cc(O)c2c(c1)OC(C)(C)[C@@H]1CC=C(C(=O)O)C[C@@H]21", "note": "[AJA, dimethylheptyl-THC-11-oic acid]", "values": [{"measurement": "effect on COX-1 activity", "setting": "COX-1", "result": "no effect"}, {"measurement": "activation of human PPARγ", "setting": "human PPARγ", "result": "activates human PPARγ as efficiently as mouse PPARγ"}, {"measurement": "lipid accumulation, Oil Red O staining", "setting": "3T3 L1 fibroblasts", "result": "dramatic increase in lipid droplet staining"}]}
